According to patent US7262318B2, “Substituted heteroaryl- and phenylsulfamoyl compounds” (Pfizer, Inc., priority 2004, dated 2007):

Tested on: transition cows
Experiment: Blood non-esterified fatty acid (NEFA) concentrations in transition cows
Format: in vivo, cow
Conditions: 0.5 mg/kg every other day from targeted day -7 pre partum and at calving, days 1–8, p<0.10, with the exception of day 5 (p=0.17)
Procedure: Determination of Chances in Blood Non-esterified Fatty Acid (NEFA) Concentrations and Liver Triglycerides Levels:
Compounds are administered once or several times in the transition period at dose levels predicted to be effective by comparing results of in-vitro receptor affinity tests in laboratory species and pharmacokinetic evaluations in cattle. NEFA levels are determined via standard laboratory methods, for example, using the commercial WAKO NEFA kit (Wako Chemical Co., USA, Dallas, Tex., 994-75409), and liver triglyceride content is determined using the method as described in the literature (J. K. Drackley, J. J. Veenhuizen, M. J. Richard and J. W. Young, J Dairy Sci, 1991, 74, 4254)).
All animals may be obtained from a commercial dairy farm approximately thirty days prior to anticipated calving date. […]
As soon as possible post-calving (˜30 minutes) the cow is transferred to the freestall barn for the next scheduled milking (6:00 hrs and 19:00 hrs). […] Pre and post-calving NEFA samples are analyzed using the WAKO NEFA-C test kit (#994-75409). […] Tissues are transported on ice and stored frozen at −70° F. At the conclusion of the study, samples are analysed of liver triglyceride levels using the method described by Drackley, J. K. et al. (1991, J Dairy Sci (74):4254–4264).

Cc1ccc(S(=O)(=O)Nc2ccc(-c3ccc(OC(F)(F)F)cc3)cc2)cc1C(=O)O [Example T02, 2-Methyl-5-(4′-trifluoromethoxy-biphenyl-4-ylsulfamoyl)-benzoic acid]
serum NEFA levels as compared to control: significantly lower
